Tests used:
[1] = test system: extracellular matrix proteins (Fibronectin, SMA and MYOC); test: Anti-fibrotic effect on trabecular meshwork tissue (immunostaining); format: in vivo, C57BL/6J mice; details: Example 2 oral 20 mg/kg once a day and 10 mg/kg twice a day; acetazolamide 4.17 mg/kg once a day
Experimental: In Experimental Example 10, the ocular tissues of each laboratory animal after measurement of intraocular pressure were extracted and sectioned and immunostaining using antibody was performed to confirm the expression of extracellular matrix proteins (Fibronectin, SMA and MYOC) and the results are shown in FIG. 13. In FIG. 13, Normal represents the trabecular meshwork of the animal which dexamethasone was not treated with in Experimental Example 10, Control represents the trabecular meshwork tissue of the animal to which only the excipient was administered in Experimental Example 10, Acetazolamide represents the trabecular meshwork tissue of the animal to which acetazolamide was administered in Experimental Example 10. Fluorescently stained tissue was observed under fluorescence microscope under the same conditions (magnification 200×, exposure time 1 sec).

[2] = test system: histidine-requiring Salmonella (TA98, TA100, TA1535 and TA1537 strains) and tryptophan-requiring E. coli (WP2uvrA (pKM101) strain); test: Genotoxicity, back-mutation test with and without metabolic activation; format: cell-based
each cell line = test: Cytotoxicity, Cyto X cell viability assay kit; format: cell-based
hERG = hERG (Homo sapiens, UniProt Q12809); test: Cardiotoxicity, hERG ligand binding assay (fluorescence polarization)
hERG, sequence (Q12809 whole entry): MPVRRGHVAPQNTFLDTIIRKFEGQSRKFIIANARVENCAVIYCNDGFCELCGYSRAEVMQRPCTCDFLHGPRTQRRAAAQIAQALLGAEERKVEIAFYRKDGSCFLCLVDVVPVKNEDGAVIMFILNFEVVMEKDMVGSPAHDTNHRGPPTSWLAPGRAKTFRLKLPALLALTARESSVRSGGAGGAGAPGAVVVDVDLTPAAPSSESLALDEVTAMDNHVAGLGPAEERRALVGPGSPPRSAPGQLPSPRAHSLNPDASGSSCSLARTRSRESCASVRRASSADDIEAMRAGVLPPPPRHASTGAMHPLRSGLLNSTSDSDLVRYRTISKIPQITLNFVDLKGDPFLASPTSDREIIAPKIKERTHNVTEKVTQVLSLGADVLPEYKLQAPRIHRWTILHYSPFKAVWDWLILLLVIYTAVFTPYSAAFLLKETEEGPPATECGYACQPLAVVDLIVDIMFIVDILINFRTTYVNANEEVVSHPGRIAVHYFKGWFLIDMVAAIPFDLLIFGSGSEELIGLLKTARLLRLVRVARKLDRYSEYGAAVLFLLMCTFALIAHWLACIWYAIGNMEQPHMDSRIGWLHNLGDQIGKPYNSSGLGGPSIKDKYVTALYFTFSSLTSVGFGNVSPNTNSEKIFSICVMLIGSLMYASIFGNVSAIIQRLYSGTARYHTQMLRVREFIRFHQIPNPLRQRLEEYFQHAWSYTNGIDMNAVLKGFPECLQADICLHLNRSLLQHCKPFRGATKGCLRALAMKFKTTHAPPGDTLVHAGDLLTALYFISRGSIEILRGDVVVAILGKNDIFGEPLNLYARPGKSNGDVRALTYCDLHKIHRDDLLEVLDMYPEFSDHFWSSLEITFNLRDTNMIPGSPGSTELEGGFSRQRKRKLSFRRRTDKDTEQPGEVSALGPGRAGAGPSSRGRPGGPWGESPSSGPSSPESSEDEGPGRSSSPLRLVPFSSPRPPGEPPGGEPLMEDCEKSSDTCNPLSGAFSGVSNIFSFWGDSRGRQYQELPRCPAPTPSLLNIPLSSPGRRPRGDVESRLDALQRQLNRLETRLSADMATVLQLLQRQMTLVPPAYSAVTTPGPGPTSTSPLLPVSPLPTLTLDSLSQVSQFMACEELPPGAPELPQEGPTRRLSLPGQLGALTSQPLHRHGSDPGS

rats = test: Single dose toxicity test; format: in vivo
intraocular pressure = test: Intraocular pressure reduction after oral administration, dexamethasone-elevated intraocular pressure; format: in vivo, C57BL/6J mice; details: oral, 5, 10, 20 mg/kg once a day and 10 mg/kg twice a day, 22 days
Experimental: In order to examine the intraocular pressure lowering effect of the derivatives of the present invention, the following animal experiments were performed. […] As controls, only the above excipients were administered to laboratory animals with elevated intraocular pressure once a day, or experimental animals were not treated with dexamethasone or with 4.17 mg/kg of acetazolamide, an intraocular pressure lowering agent, once a day.
Then, the intraocular pressure of the test animal was measured at predetermined intervals for 22 days, and the results are shown in FIG. 8 to FIG. 12. In FIG. 8 to FIG. 12, Control represents a control group in which dexamethasone is not treated to laboratory animals, Vehicle represents a control group in which only excipients were orally administered to laboratory animals with elevated intraocular pressure, and Acetazolamide represents control group in which acetazolamide, an intraocular pressure lowering agent was orally administered to laboratory animals with elevated intraocular pressure.

MMP (MMP2, MMP9) = test: MMP enzyme protein and mRNA expression in trabecular meshwork tissue; format: in vivo, C57BL/6J mice; details: Example 2 oral 20 mg/kg once a day and 10 mg/kg twice a day; acetazolamide 4.17 mg/kg once a day
Experimental: (§1) In Experimental Example 10, the expression amounts of these proteins and mRNAs in MMP and TIMP enzymes were measured for the eye tissues of the respective laboratory animals which the measurement of the intraocular pressure was completed, and the results are shown in FIG. 14 to FIG. 17. FIG. 14 and FIG. 15 show protein expression amounts of MMP (MMP2, MMP9) and TIMP (TIMP 1, TIMP2) enzymes, respectively. FIG. 16 and FIG. 17 show mRNA expression levels. In FIG. 14 to FIG. 17, Normal represents the expression level of the animal to which the dexamethasone was not treated in Experimental Example 10, Control represents the expression level of the animal to which only the excipient was administered in Experimental Example 10, and Acetazolamide represents the expression level of the animal to which acetazolamide was administered in Experimental Example 10.

TIMP (TIMP 1, TIMP2) = test: TIMP enzyme protein and mRNA expression in trabecular meshwork tissue; format: in vivo, C57BL/6J mice; details: Example 2 oral 20 mg/kg once a day and 10 mg/kg twice a day; acetazolamide 4.17 mg/kg once a day
Experimental: as §1

[3] = test system: TPA-induced mouse ear edema; test: Anti-inflammatory activity, TPA-induced mouse ear edema; format: in vivo, ICR mice; details: 0.5% in acetone
Experimental: In order to investigate the anti-inflammatory activity of the derivatives of the present invention, the animal experiments were performed as below. Seven-week-old male ICR mice were treated with TPA (12-O-tetradecanoylphorbol 13-acetate, […]) in the right ear. […] The same experiment was performed by treating hydrocortisone used as a treatment agent for inflammation as a control at the same concentration.
Subsequently, secondly, the adenosine derivative compound of the present invention was treated after 6 hours from TPA treatment. Twenty-four hours after TPA treatment, the animals were euthanized using the cervical dislocation method. Then, a right ear sample was obtained using a 6 mm diameter punch. The activity could be confirmed by weighing using a microbalance. The inhibition rate (%) was calculated using the following Equation 1.

## O[C@@H]1[C@H](O)CS[C@H]1n1cnc2c(NCc3cccc(Cl)c3)nc(Cl)nc21 [Example 2, (2R,3R,4S)-2-(2-chloro-6-(3-chlorobenzylamino)-9H-purin-9-yl)tetrahydrothiophene-3,4-diol]
[1]
  expression of fibronectin, SMA and MYOC protein in trabecular meshwork tissue: greatly reduced
[2]
  toxicity, Genotoxicity test: Not found
[2]; all doses of each strain, regardless of metabolic activation
  number of back-mutation reversion colonies: did not exceed twice the negative control
Each cell line
  toxicity, Cytotoxicity Test: Not found
hERG
  toxicity, Cardiotoxicity test: Not found
hERG; human, hERG channel protein (ligand binding assay), probe red fluorescent hERG channel ligand tracer, 10 μM, read-out: inhibition rate (hERG channel ligand tracer binding)
  inhibition at 10 µM: ≤ 50%
rats; rat, in vivo
  toxicity, Single dose toxicity test: Not found
rats; single dose of 2,000 mg/kg, 5 male rats and 5 female rats
  dead animals: there was no dead animal
Intraocular pressure
  intraocular pressure, dose dependence: reduction in intraocular pressure, which was dependent on the dose
MMP (MMP2, MMP9)
  protein and mRNA expression levels of MMP enzyme compared with the normal group: significantly increased
TIMP (TIMP 1, TIMP2)
  protein and mRNA expression levels of TIMP enzyme compared with the normal group: significantly decreased
[3]
  TPA-induced mouse ear edema: reduced by a small amount
